Assay [1] has as its system Beta-1 adrenergic receptor (Cavia porcellus). Particulars: Cardiac atrium.
In assay [2] the target is Beta-2 adrenergic receptor (Cavia porcellus) (UniProt Q8K4Z4).
Chain of Beta-2 adrenergic receptor (Cavia porcellus) (Q8K4Z4 whole entry, looked up): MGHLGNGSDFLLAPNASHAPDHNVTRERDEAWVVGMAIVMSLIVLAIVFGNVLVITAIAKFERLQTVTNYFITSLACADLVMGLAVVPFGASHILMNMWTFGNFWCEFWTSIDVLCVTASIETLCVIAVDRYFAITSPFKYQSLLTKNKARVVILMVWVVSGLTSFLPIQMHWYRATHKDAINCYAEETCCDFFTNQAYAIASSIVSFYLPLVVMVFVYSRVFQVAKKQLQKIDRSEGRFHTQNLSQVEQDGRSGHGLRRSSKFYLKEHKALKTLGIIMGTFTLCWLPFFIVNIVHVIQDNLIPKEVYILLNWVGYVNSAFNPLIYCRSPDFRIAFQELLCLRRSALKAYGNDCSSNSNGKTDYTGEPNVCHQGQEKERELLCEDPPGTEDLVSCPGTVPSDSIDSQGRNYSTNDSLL
Description: Beta-2 adrenergic receptor activity in guinea pig tracheal smooth muscle

Turning to `COc1cc([C@H](C)[C@@H]2NCCc3cc(O)c(O)cc32)cc(OC)c1OC`, the pD2 in assay [1] was 6.67; in assay [2] it was 7.15.
Compound `COc1cc(C(C)(C)[C@@H]2NCCc3cc(O)c(O)cc32)cc(OC)c1OC` returned a pD2 in assay [2] of 4.47.
As for `COc1cc([C@@H](C)[C@@H]2NCCc3cc(O)c(O)cc32)cc(OC)c1OC`, the pD2 in assay [1] was 7.35; in assay [2], 8.39.
`COc1cc(C[C@@H]2NCCc3cc(O)c(O)cc32)cc(OC)c1OC`: in assay [2], the pD2 was 8.15.

For the origin of these results see ChEMBL document CHEMBL1121684, “Selective and potent beta 2-adrenoceptor agents within the tetrahydroisoquinoline class: effect of methyl substitution at the benzylic carbon of the 1-(3,4,5-trimethoxybenzyl) group of trimetoquinol” (J Med Chem, 1981).
